Calls of active or inactive are those of the source. The rule behind the calls is not given here.
Tests used:
[1] = test system: MDA-MB-231; assay: Growth inhibition of anchorage-Independent human MDA-MB-231 cells assessed as decrease in number of colonies incubated for 72 hrs by MTT assay; assay type: functional, cell-based; settings: dose 1-10 µM
[2] = test system: MDA-MB-231; assay: In vivo antitumor activity against human MDA-MB-231 cells xenografted in Balb/c mouse assessed as reduction in tumor weight at 40 to 70 mg/kg, po once daily measured for 16 days; assay type: functional, organism-based; settings: dose 40-70 mg/kg, time 16.0 day
[3] = test system: MDA-MB-231; assay: In vivo antitumor activity against human MDA-MB-231 cells xenografted in Balb/c mouse assessed as tumor volume at 70 mg/kg, po once daily measured for 16 days (reference value: 600 mm^3); assay type: functional; settings: time 16.0 day
[4] = test system: HCT-116; assay: Antiproliferative activity against human HCT-116 cells assessed as growth inhibition measured after 72 hrs by CellTiter-Glo assay; assay type: functional
[5] = test system: HCT-116; assay: Induction of apoptosis in human HCT-116 cells assessed as cleaved caspase-3 at 0.1 to 10 uM incubated for 24 hrs by Western blot analysis; assay type: functional, cell-based; settings: dose 0.1-10 µM
[6] = molecular target: CYP2C9 (Homo sapiens, UniProt P11712); assay: Inhibition of CYP2C9 (unknown origin) at 10 uM relative to control; assay type: ADME
[7] = test system: MDA-MB-231; assay: Antitumor activity against human MDA-MB-231 cells xenografted in Balb/c mouse assessed as decrease in ki67 at 40 to 70 mg/kg, po once daily measured for 16 days by Immunohistochemical analysis; assay type: functional, organism-based; settings: dose 40-70 mg/kg, time 16.0 day
[8] = test system: MDA-MB-231; assay: Induction of apoptosis in human MDA-MB-231 cells assessed as cleaved caspase-3 at 0.1 to 10 uM incubated for 24 hrs by Western blot analysis; assay type: functional, cell-based; settings: dose 0.1-10 µM
[9] = Toxicity in Balb/c mouse xenografted with human MDA-MB-231 cells assessed as change in body weight at 40 to 70 mg/kg, po once daily measured for 16 days; assay type: organism-based; settings: in vivo, 384 h, dose 40-70 mg/kg, time 16 day
[10] = test system: MDA-MB-231; assay: In vivo antitumor activity against human MDA-MB-231 cells xenografted in Balb/c mouse assessed as reduction in tumor mass at 40 to 70 mg/kg, po once daily measured for 16 days; assay type: functional, organism-based; settings: dose 40-70 mg/kg, time 16.0 day
[11] = test system: MDA-MB-231; assay: In vivo antitumor activity against human MDA-MB-231 cells xenografted in Balb/c mouse assessed as tumor volume at 40 mg/kg, po once daily measured for 16 days (reference value: 600 mm^3); assay type: functional; settings: time 16.0 day
[12] = molecular target: T1, Mitogen-activated protein kinase; ERK1/ERK2 (Homo sapiens) (UniProt P27361+P28482); assay: Inhibition of ERK1/2 autophosphorylation in human MDA-MB-231 cells at 0.5 to 5 uM incubated for 24 hrs by Western blot analysis; assay type: cell-based; settings: dose 0.5-5 µM
[13] = molecular target: CYP3A4 (Homo sapiens, UniProt P08684); assay: Inhibition of CYP3A4 (unknown origin) at 10 uM relative to control; assay type: ADME
[14] = molecular target: CYP2D6 (Homo sapiens, UniProt P10635); assay: Inhibition of CYP2D6 (unknown origin) at 10 uM relative to control; assay type: ADME
[15] = test system: MDA-MB-231; assay: Antiproliferative activity against human MDA-MB-231 cells assessed as growth inhibition measured after 72 hrs by CellTiter-Glo assay; assay type: functional
[16] = test system: MDA-MB-231; assay: Induction of apoptosis in human MDA-MB-231 cells assessed as cleaved PARP at 0.1 to 10 uM incubated for 24 hrs by Western blot analysis; assay type: functional, cell-based; settings: dose 0.1-10 µM
[17] = molecular target: T2, CYP1A2 (Homo sapiens, UniProt P05177); assay: Inhibition of CYP1A2 (unknown origin) at 10 uM relative to control; assay type: ADME
T2 sequence (P05177 whole entry): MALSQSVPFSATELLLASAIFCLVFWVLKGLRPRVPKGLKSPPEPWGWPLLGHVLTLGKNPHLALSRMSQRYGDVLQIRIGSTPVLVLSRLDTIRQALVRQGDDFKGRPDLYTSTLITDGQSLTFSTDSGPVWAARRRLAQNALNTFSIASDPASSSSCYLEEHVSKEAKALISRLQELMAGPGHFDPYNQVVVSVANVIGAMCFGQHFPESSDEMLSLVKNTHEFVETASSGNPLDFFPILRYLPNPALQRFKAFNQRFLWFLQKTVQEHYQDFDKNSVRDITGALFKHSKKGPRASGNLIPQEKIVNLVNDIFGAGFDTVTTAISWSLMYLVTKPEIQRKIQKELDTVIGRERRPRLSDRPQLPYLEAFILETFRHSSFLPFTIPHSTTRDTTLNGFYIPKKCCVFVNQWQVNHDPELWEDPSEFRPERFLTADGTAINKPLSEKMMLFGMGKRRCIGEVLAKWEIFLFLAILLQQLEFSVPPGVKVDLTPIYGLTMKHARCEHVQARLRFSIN

[18] = test system: HCT-116; assay: Induction of apoptosis in human HCT-116 cells assessed as cleaved PARP at 0.1 to 10 uM incubated for 24 hrs by Western blot analysis; assay type: functional, cell-based; settings: dose 0.1-10 µM
[19] = test system: MDA-MB-231; assay: Antimetastatic activity against human MDA-MB-231 cells expressing firefly luciferase xenografted NSG orthotopic mouse model assessed as reduction in luminescence intensity at chest region at 70 mg/kg, po once daily measured for 2 weeks; assay type: functional, organism-based
[20] = test system: MDA-MB-231; assay: Induction of apoptosis in human MDA-MB-231 cells assessed apoptotic cell death at 10 uM incubated for 24 hrs by Annexin-V/PI analysis; assay type: functional, cell-based
[21] = Antiproliferative activity against human A375P cells assessed as growth inhibition measured after 72 hrs by CellTiter-Glo assay; assay type: functional
[22] = molecular target: T1, Mitogen-activated protein kinase; ERK1/ERK2 (Homo sapiens); assay: Inhibition of ERK1/2 autophosphorylation in human HCT-116 cells at 0.5 to 5 uM incubated for 24 hrs by Western blot analysis; assay type: cell-based; settings: dose 0.5-5 µM
[23] = test system: BaF3; assay: Antiproliferative activity against mouse Ba/F3 cells harbouring FLT3 ITD F691L mutant assessed as growth inhibition measured after 72 hrs by CellTiter-Glo assay; assay type: functional
[24] = test system: BaF3; assay: Antiproliferative activity against mouse Ba/F3 cells harbouring FLT3 ITD F691I mutant assessed as growth inhibition measured after 72 hrs by CellTiter-Glo assay; assay type: functional
[25] = test system: BaF3; assay: Antiproliferative activity against mouse Ba/F3 cells assessed as growth inhibition measured after 72 hrs by CellTiter-Glo assay; assay type: functional
[26] = test system: BaF3; assay: Antiproliferative activity against mouse Ba/F3 cells harbouring FLT3 ITD mutant assessed as growth inhibition measured after 72 hrs by CellTiter-Glo assay; assay type: functional
[27] = Inhibition of FLT3 D835Y (unknown origin); parameters: species or system Homo sapiens
[28] = Metabolic stability in human liver microsomes assessed as compound remaining at 1 uM measured after 1 hr; assay type: ADME, Microsome; settings: read-out: Stabilty
[29] = molecular target: Focal adhesion kinase 1 (Homo sapiens, UniProt Q05397); assay: Inhibition of recombinant FAK (unknown origin) by radiometric kinase assay
[30] = test system: BaF3; assay: Antiproliferative activity against mouse Ba/F3 cells harbouring FLT3 ITD D835Y mutant assessed as growth inhibition measured after 72 hrs by CellTiter-Glo assay; assay type: functional
[31] = test system: BaF3; assay: Antiproliferative activity against mouse Ba/F3 cells harbouring FLT3 D835Y mutant assessed as growth inhibition measured after 72 hrs by CellTiter-Glo assay; assay type: functional
[32] = Inhibition of FYK Y379 mutant phosphorylation in human MDA-MB-231 cells by in-cell western blot assay; assay type: cell-based
[33] = test system: MV4-11; assay: In vivo antitumor activity against human MV4-11 cells xenografted in mouse assessed as tumor weight at 20 mg/kg, po relative to control; assay type: functional, organism-based

Chain of Focal adhesion kinase 1 (Q05397 whole entry): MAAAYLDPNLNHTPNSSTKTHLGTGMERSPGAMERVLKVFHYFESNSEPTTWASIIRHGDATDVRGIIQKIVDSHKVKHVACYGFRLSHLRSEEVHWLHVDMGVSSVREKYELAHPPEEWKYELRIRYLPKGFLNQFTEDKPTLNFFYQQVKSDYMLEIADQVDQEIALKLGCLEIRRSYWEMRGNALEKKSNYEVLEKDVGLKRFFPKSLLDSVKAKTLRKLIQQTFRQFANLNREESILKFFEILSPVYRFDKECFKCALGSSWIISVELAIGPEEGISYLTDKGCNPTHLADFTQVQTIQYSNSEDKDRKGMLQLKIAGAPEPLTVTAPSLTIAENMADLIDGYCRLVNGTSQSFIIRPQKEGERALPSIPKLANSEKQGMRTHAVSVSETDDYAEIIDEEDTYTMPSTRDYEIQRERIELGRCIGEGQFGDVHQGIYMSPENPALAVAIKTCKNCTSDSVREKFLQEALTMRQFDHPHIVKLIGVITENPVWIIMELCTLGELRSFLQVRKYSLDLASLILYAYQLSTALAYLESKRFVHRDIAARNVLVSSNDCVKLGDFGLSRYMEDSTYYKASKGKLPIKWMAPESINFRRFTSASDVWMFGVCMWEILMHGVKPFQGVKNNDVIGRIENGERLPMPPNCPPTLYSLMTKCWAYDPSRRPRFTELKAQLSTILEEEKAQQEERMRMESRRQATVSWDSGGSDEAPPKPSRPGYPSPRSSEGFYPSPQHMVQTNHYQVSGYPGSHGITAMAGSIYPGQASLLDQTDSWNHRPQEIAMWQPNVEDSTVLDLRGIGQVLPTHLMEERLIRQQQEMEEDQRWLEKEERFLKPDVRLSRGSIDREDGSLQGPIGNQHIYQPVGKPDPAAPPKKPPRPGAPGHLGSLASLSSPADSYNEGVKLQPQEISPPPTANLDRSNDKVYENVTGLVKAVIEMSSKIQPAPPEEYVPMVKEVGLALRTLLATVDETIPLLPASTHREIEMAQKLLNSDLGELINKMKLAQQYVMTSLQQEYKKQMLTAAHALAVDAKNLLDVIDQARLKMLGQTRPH
T1 sequence (P27361 whole entry, looked up): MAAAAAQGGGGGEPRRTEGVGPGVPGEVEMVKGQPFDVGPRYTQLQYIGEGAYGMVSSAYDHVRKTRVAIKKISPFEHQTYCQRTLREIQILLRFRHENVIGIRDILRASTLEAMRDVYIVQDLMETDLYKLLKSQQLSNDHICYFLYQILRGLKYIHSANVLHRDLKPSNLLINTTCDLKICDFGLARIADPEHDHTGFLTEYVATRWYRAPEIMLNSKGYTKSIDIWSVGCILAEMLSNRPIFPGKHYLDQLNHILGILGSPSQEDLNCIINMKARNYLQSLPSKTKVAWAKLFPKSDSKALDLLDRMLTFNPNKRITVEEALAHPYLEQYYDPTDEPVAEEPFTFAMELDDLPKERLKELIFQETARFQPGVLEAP
T1 sequence (P28482 whole entry, looked up): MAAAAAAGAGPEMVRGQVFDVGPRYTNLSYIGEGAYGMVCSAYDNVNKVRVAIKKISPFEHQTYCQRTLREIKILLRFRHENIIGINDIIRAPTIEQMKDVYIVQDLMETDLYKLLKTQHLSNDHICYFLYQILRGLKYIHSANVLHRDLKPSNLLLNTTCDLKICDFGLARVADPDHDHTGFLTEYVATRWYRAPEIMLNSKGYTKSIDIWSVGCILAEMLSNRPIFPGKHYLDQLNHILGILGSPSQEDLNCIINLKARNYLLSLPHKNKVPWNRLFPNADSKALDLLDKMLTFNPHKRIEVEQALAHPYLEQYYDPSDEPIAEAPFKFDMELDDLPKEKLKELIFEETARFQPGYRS
Chain of CYP2C9 (P11712 whole entry): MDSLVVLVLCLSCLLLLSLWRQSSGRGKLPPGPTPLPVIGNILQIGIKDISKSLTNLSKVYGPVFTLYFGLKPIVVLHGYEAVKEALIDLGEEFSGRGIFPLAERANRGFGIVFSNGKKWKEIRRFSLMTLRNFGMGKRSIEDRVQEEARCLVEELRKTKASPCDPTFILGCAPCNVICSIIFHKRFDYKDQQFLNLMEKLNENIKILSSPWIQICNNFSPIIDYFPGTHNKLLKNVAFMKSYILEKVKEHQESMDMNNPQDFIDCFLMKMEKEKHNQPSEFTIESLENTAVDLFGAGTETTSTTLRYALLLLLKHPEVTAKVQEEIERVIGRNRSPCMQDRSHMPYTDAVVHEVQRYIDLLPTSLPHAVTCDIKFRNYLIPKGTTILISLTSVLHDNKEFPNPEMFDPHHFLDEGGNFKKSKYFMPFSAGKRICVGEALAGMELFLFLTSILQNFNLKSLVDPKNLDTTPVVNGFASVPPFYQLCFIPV
Chain of CYP3A4 (P08684 whole entry): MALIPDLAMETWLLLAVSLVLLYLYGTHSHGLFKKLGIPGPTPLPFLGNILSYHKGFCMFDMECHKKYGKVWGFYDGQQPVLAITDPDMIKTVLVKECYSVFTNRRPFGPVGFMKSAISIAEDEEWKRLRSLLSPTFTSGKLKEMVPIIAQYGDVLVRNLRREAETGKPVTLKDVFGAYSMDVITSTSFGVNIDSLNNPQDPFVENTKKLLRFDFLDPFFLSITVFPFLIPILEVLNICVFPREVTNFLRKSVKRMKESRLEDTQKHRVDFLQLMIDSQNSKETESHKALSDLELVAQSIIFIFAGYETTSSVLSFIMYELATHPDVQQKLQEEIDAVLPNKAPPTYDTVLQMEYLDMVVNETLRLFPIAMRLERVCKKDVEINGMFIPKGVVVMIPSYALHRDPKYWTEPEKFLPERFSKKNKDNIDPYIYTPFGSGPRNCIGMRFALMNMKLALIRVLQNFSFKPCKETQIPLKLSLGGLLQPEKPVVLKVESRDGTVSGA
Chain of CYP2D6 (P10635 whole entry): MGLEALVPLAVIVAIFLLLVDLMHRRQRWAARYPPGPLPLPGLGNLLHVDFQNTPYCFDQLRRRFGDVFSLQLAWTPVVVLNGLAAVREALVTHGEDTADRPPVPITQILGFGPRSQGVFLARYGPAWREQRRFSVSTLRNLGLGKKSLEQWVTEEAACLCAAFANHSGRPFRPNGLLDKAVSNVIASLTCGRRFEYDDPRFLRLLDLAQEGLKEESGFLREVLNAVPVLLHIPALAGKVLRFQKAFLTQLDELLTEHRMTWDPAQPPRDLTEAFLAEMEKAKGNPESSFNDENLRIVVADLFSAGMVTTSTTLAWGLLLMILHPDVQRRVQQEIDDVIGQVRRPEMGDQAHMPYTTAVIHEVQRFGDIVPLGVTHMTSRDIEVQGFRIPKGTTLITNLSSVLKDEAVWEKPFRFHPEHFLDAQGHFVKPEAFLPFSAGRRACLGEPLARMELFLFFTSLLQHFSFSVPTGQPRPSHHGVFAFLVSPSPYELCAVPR

For CN(c1ncccc1CNc1nc(Nc2ccc3c(c2)CC(=O)N3)ncc1C(F)(F)F)S(C)(=O)=O [PF-00562271], the “growth inhibition (GI)” value [1] was “Active”, the Activity [2] was “Active” and the Activity [3] was “Active”. The GI50 ([4]; Homo sapiens, HCT-116) was 1140 nM, the Activity [5] was “Active” and the inhibition at 10 µM [6] was 42.7%. The Activity [7] was “Active”, the Activity [8] was “Active” and the Activity [9] was “Non-Toxic”. For the same compound, the Activity [10] was “Active”, the Activity [11] was “Active” and the inhibition [12] was “inactive”. The inhibition at 10 µM [13] was 47.2%, the inhibition at 10 µM [14] was 90.5% and the GI50 ([15]; Homo sapiens, MDA-MB-231) was 1950 nM. The Activity [16] was “Active”, the inhibition at 10 µM [17] was 91.2% and the Activity [18] was “Active”. The Activity [19] was “Active”, the Activity [20] was “Active” and the GI50 ([21]; Homo sapiens, A375P) was 10200 nM. The inhibition [22] was “inactive”.
Work on CS(=O)(=O)Nc1cccc(-c2csc3cnc(Nc4ccc(N5CCOCC5)cc4)nc23)c1 yielded a GI50 [23] of 104 nM, a GI50 [4] of 410 nM and a GI50 [24] of 365 nM. The GI50 [25] was 510 nM, the GI50 [26] was 9.5 nM and the IC50 [27] was < 0.5 nM. It also gave a remaining at 1 h, 1 µM [28] of 79.5%, an IC50 [29] of 8 nM and a GI50 [30] of 10.3 nM. It also gave a GI50 [15] of 400 nM, a GI50 [31] of 1.7 nM and a GI50 [21] of 1570 nM. It also gave an IC50 [32] of 260 nM.
Work on COc1cc(Nc2ncc3scc(-c4cccc(NS(C)(=O)=O)c4)c3n2)cc(OC)c1OC yielded a GI50 [23] of 25.3 nM, a GI50 [4] of 430 nM and a GI50 [24] of 325 nM. For the same compound, the GI50 [25] was 586 nM, the GI50 [26] was 3.1 nM and the IC50 [27] was < 0.5 nM. It also gave a remaining at 1 h, 1 µM [28] of 39.7%, an IC50 [29] of 7 nM and a GI50 [30] of 1.3 nM. For the same compound, the GI50 [15] was 410 nM, the GI50 [31] was 1.3 nM and the GI50 [21] was 200 nM. For the same compound, the IC50 [32] was 260 nM.
Compound CNC(=O)c1cc(Oc2ccc(NC(=O)Nc3ccc(Cl)c(C(F)(F)F)c3)cc2)ccn1 [SORAFENIB] has a GI50 ([23]; Mus musculus, BaF3) of 1540 nM, a GI50 ([24]; Mus musculus, BaF3) of 2640 nM and a GI50 ([25]; Mus musculus, BaF3) of 5420 nM. For the same compound, the GI50 ([26]; Mus musculus, BaF3) was 2.8 nM, the GI50 ([30]; Mus musculus, BaF3) was 206 nM and the Activity [33] was “Active”. For the same compound, the GI50 ([31]; Mus musculus, BaF3) was 56.5 nM.

Reference: ChEMBL document CHEMBL4837239, “Identification of Thieno[3,2-d]pyrimidine Derivatives as Dual Inhibitors of Focal Adhesion Kinase and FMS-like Tyrosine Kinase 3” (J Med Chem, 2021)
